The results in this text go back to patent US8592403B2, “Diazepine and diazocane compounds as MC4 agonists” (Pfizer Limited, priority 2008, dated 2013).

A short description of series [1]: In vitro metabolism rate determination, human liver microsome (HLM) assay. The series is classed as in vitro ADME. To be noted: human, liver microsomes, read-out: HLM: Clint, app. The essentials: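 Human liver microsomes at 0.5 nmol cytochrome P450/ml with 1 μM substrate, pre-warmed 5 min at 37° C, reaction started with NADP; samples taken 0–60 min and terminated. Substrate loss measured; first-order rate constant from log-linear regression converted to half-life or Clint (μl/min/mg protein).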
Background: Microsomes from liver hold many membrane-bound enzymes, among them those of drug oxidation.

In another series the target is T1, MC4 receptor (MC4R) (Homo sapiens, UniProt P32245).
T1 construct: expressed in transfected cells; host or cells: CHO-CRE MC4R cells (membranes)
The series can be described thus: Nle4, D-Phe7-α-MSH inhibition at the MC4 receptor (competition binding, SPA, CHO-CRE MC4R membranes). An excerpt:
Nle4, D-Phe7-α-MSH Inhibition at the MC4 Receptor
Nle4, D-Phe7-α-MSH is a stable analogue of melanocyte-stimulating hormone (MSH), which is an agonist at the MC4 receptor (MC4R). Compounds can be evaluated for their ability to inhibit Nle4, D-Phe7-α-MSH binding to membranes from cells expressing the MC4R using a competition binding assay versus [^125I] Nle4, D-Phe7-α-MSH.
Cells expressing the MC4R were subject to homogenisation and the membrane fragment isolated by differential centrifugation. CHO-CRE MC4R cell membranes were coupled to PVT-PEI-WGA SPA Beads type A for 2 hours, spun at 1000 RPM for 5 min and suspended to a concentration of 300 ug bead/ml (0.15 ug membrane, 15 ug bead per well). Bead/membrane mix was incubated with 0.06 nM [^125I] Nle4, D-Phe7-α-MSH and 11 half-log concentrations of competitor ligand, in duplicate, in a total volume of 50 μl buffer per well (25 mM HEPES, 1 mM MgCl2, 2.5 mM CaCl2, 1% Pluronic F68, 1 complete EDTA protease inhibitor tablet/50 ml pH7). Non-specific binding was determined by the inclusion of 100 nM SHU9119. The reaction was initiated by the addition of bead/membranes and plates were incubated at room temperature for 12 hours (the first hour on a plate shaker), after which the amount of radioactivity present was determined using a Wallac plate counter. Ki values were determined by data analysis using appropriate software.

For a further series, the target named is MC4 receptor (Homo sapiens, UniProt P32245). The experiment in a line: MC4 EC50 functional potency (protocol E of US2005/0176772 / WO 2005/077935). The series is classed as cell-based. The protocol: The compounds of formula (I) of the present invention have utility as MCR4 agonists in the treatment of various disease states.
MC5 and MC4 EC50 activity was determined as described by assay protocols D and E, respectively, in US2005/0176772 (pages 28-30).

In another series the target is T2, MC3 receptor (MC3R) (Homo sapiens, UniProt P41968).
T2 construct: expressed in transfected cells; host or cells: CHO-CRE MC3R cells (membranes)
The series can be described thus: Nle4, D-Phe7-α-MSH inhibition at the MC3 receptor (competition binding, SPA, CHO-CRE MC3R membranes). The essentials: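 Competition binding by SPA used CHO-CRE MC3R membranes on WGA beads with 0.06 nM [125I]Nle4,D-Phe7-α-MSH and 11 half-log competitor concentrations. Buffer was 25 mM HEPES, MgCl2, CaCl2, 1% Pluronic F68, pH7, incubated 12 h at room temperature. Non-specific binding was defined with 100 nM SHU9119, and Ki values were derived.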

The target in a further series is T3, CYP3A4 (Homo sapiens, UniProt P08684).
T3 construct: utilizes human liver microsomes together with isoform-specific clinical drug probes; from tissue; host or cells: human liver microsomes
The series can be described thus: High density DDI 3 μM cocktail screen in human liver microsomes, midazolam probe. The series is classed as in vitro ADME. To be noted: human, liver microsomes, probe midazolam, read-out: % inhibition 3A4 @ 3 μM. The essentials:
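Pooled human liver microsomes incubated with isoform-specific clinical probe substrates as a cocktail (midazolam for CYP3A4), with or without test compound at 3 μM. Metabolite formation followed over time by LC-MS/MS. Inhibition expressed as a single-point percentage.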

T2 sequence (P41968 whole entry): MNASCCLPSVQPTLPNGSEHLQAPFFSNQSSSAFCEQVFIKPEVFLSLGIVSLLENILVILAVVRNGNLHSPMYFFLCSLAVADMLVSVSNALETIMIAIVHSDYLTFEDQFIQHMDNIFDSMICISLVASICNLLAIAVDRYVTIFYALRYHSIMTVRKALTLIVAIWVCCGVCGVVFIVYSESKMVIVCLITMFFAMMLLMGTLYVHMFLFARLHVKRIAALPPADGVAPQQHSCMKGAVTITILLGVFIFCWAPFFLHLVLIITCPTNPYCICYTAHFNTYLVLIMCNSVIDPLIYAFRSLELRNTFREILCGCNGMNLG
T3 sequence (P08684 whole entry, canonical isoform): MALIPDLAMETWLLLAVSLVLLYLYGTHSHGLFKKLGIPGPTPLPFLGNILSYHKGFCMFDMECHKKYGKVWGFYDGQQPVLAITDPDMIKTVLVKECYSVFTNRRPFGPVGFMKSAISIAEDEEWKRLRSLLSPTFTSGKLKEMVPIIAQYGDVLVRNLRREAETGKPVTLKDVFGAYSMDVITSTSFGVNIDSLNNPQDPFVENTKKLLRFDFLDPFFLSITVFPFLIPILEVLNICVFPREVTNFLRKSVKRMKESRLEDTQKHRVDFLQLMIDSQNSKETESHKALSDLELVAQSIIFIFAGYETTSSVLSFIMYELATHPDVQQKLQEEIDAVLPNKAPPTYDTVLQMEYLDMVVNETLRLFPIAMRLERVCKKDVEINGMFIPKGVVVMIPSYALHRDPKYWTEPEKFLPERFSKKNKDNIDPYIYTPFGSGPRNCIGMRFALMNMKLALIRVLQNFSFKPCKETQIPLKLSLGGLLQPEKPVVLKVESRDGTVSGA
T1 sequence (P32245 whole entry): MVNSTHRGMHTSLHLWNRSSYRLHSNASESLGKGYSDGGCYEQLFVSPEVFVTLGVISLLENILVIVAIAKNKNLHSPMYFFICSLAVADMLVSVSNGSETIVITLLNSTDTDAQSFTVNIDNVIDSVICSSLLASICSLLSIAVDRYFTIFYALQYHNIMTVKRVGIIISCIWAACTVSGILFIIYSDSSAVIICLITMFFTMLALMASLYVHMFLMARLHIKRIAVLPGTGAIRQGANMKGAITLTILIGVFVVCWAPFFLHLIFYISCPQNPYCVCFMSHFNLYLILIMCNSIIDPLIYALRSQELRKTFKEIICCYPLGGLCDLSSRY
MC4 receptor, sequence (P32245 whole entry): as above

As a reminder, the Ki is a dissociation constant, usually derived from enzyme kinetics or from competition with a known ligand. Read a high Ki as a looser hold on the target. The term EC50 denotes the concentration at which the effect is half-maximal. For orientation: inhibition means the change of the read-out against control, counted positive when it falls. For `COC(=O)N1CCN(C(=O)[C@@H]2CN(c3ccc(C#N)nn3)CC2c2ccc(OC)cc2F)CCCC1c1ccc(Cl)cc1` (stereo in doubt) [Example 106, methyl 8-(4-chlorophenyl)-4-{[(3S,4S)-4-(2-fluoro-4-methoxyphenyl)-1-(6-cyanopyridazin-3-yl)pyrrolidin-3-yl]carbonyl}-1,4-diazocane-1-carboxylate], the microsomal CLint at 1 μM in series [1] turned out to be 38 µL/min/mg. Further, the Ki came out at 28.5 nM on MC4 receptor (MC4R) and 250 nM on MC3 receptor (MC3R). The EC50 on MC4 receptor stood at 6.4 nM. Also, the inhibition at 3 µM at CYP3A4 came to 66.5%.

In the case of `CN(C)C(=O)N1CCN(C(=O)[C@@H]2CN(c3ccc(C#N)nn3)C[C@H]2c2ccc(Cl)cn2)CCC[C@H]1c1ccc(Cl)cc1` [Example 45], the microsomal CLint at 1 μM in series [1] came to 234 µL/min/mg. The Ki is 121 nM at MC4 receptor (MC4R) and 101 nM on MC3 receptor (MC3R). This compound also gave an EC50 on MC4 receptor of 10.8 nM. The inhibition at 3 µM at CYP3A4 amounted to 75.8%.

Regarding `CC(C)CC(=O)N1CCN(C(=O)[C@@H]2CN(C(C)(C)C)C[C@H]2c2ccc(F)cc2F)CCC[C@H]1c1ccc(Cl)cc1` [Example 16], the microsomal CLint at 1 μM in series [1] worked out at 92.6 µL/min/mg. The results for the Ki on MC4 receptor (MC4R) and on MC3 receptor (MC3R) were 378 nM and 2100 nM, respectively. Besides, the EC50 at MC4 receptor is 18.5 nM. Also, the inhibition at 3 µM on CYP3A4 came out at 55.5%.

As to `COc1ccc([C@@H]2CN(c3ccc(Cl)nn3)C[C@H]2C(=O)N2CCCC(c3ccc(Cl)cc3)N(S(C)(=O)=O)CC2)c(F)c1` (stereo partly drawn) [Example 108, [5-(4-chlorophenyl)-4-(methylsulfonyl)-1,4-diazocan-1-yl]-[(3S,4R)-1-(6-chloro-pyridazine-3-yl)-4-(2-fluoro-4-methoxyphenyl)-pyrrolidin-3-yl]-methanone], the microsomal CLint at 1 μM in series [1] was determined as 59 µL/min/mg. In addition, the Ki at MC4 receptor (MC4R) amounted to 180 nM; at MC3 receptor (MC3R), 875 nM. On MC4 receptor, this compound gave an EC50 of 123 nM. The inhibition at 3 µM at CYP3A4 came to 63.5%.

Take `CC(=O)N1CCN(C(=O)[C@@H]2CN(c3ccc4nncn4n3)C[C@H]2c2ccc(Cl)cn2)CCC[C@@H]1c1ccc(Cl)cc1` [Example 5]: in series [1], the microsomal CLint at 1 μM stood at 17.4 µL/min/mg. Moreover, the Ki at MC4 receptor (MC4R) worked out at 226 nM; at MC3 receptor (MC3R), 1680 nM. The compound further showed an EC50 on MC4 receptor of 23.2 nM. Moreover, at CYP3A4, the inhibition at 3 µM amounted to 80.4%.

Regarding `COC(=O)N1CCN(C(=O)[C@@H]2CN(c3ccc(=O)n(C)n3)C[C@H]2c2ccc(OC)cc2F)CCCC1c1ccc(Cl)cc1` (mixture of isomers) [Example 116], the microsomal CLint at 1 μM in series [1] was found to be 12 µL/min/mg. In addition, the Ki at MC4 receptor (MC4R) came out at 24.3 nM; on MC3 receptor (MC3R), 573 nM. The EC50 at MC4 receptor is 3.6 nM. Also, the inhibition at 3 µM at CYP3A4 came to 75%.

Take `COC(=O)N1CCN(C(=O)[C@@H]2CN(C3CCOCC3)C[C@H]2c2ccc(F)cc2F)CCCC1c1ccccc1` (mixture of isomers) [Example 74]: the microsomal CLint at 1 μM in series [1] turned out to be 74 µL/min/mg. In addition, the Ki on MC4 receptor (MC4R) was found to be 1390 nM; on MC3 receptor (MC3R) it was 19600 nM. The EC50 on MC4 receptor was 86.7 nM. In addition, at CYP3A4, the inhibition at 3 µM stood at 56%.

Take `COC(=O)N1CCN(C(=O)[C@@H]2CN(c3ccc(C#N)nn3)C[C@H]2c2ccc(F)cc2F)CCCC1c1ccc(Cl)cc1` (mixture of isomers) [Example 75]: the microsomal CLint at 1 μM in series [1] worked out at 8 µL/min/mg. For the same compound, the Ki at MC4 receptor (MC4R) came out at 84.7 nM; on MC3 receptor (MC3R) it was 462 nM. The compound further came in with an EC50 at MC4 receptor of 10.7 nM. Moreover, the inhibition at 3 µM on CYP3A4 was determined as 73.5%.

As for `Cn1nc(N2C[C@@H](C(=O)N3CCCC(c4ccc(Cl)cc4)N(S(C)(=O)=O)CC3)[C@H](c3ccc(F)cc3F)C2)ccc1=O` (mixture of isomers) [Example 81], the microsomal CLint at 1 μM in series [1] came out at 18 µL/min/mg. The Ki is 122 nM at MC4 receptor (MC4R) and 1750 nM at MC3 receptor (MC3R). For the same compound, the EC50 at MC4 receptor is 20 nM. The inhibition at 3 µM at CYP3A4 was found to be 32%.

For `COC(=O)N1CCN(C(=O)[C@@H]2CN(C(=O)OC(C)(C)C)C[C@H]2c2ccc(F)cc2F)CCCC1c1ccccc1` (mixture of isomers) [Example 97], in series [1], the microsomal CLint at 1 μM turned out to be 247 µL/min/mg. Also, the Ki on MC4 receptor (MC4R) amounted to 1620 nM; at MC3 receptor (MC3R), 3720 nM. Besides, a half-maximal response on MC4 receptor (EC50) required 157 nM. For the same compound, the inhibition at 3 µM on CYP3A4 amounted to 63%.

For `COCC(=O)N1CCN(C(=O)[C@@H]2CN(C(C)(C)C)C[C@H]2c2ccc(F)cc2F)CCC[C@H]1c1ccc(Cl)cc1` [Example 9], the microsomal CLint at 1 μM in series [1] was 44.7 µL/min/mg. For the same compound, the Ki on MC4 receptor (MC4R) was determined as 1530 nM; at MC3 receptor (MC3R), 12600 nM. A half-maximal effect on MC4 receptor (EC50) was put at 52.8 nM. The inhibition at 3 µM on CYP3A4 was 29.1%.

In the case of `COC(=O)N1CCN(C(=O)[C@@H]2CN(C(C)(C)C)C[C@H]2c2ccc(F)cc2F)CCCC1c1ccccc1` (mixture of isomers) [Example 82], the microsomal CLint at 1 μM in series [1] was determined as 66 µL/min/mg. Further, the Ki amounted to 5180 nM on MC4 receptor (MC4R) and 19400 nM on MC3 receptor (MC3R). For the same compound, the EC50 on MC4 receptor turned out to be 60.6 nM. In addition, the inhibition at 3 µM on CYP3A4 stood at 47%.

`CC(C)(C)N1C[C@@H](C(=O)N2CCC[C@@H](c3ccc(Cl)cc3)N(C(=O)C3CCCC3)CC2)[C@H](c2ccc(F)cc2F)C1` [Example 17]: in series [1], the microsomal CLint at 1 μM worked out at 118 µL/min/mg. Moreover, the Ki amounted to 513 nM at MC4 receptor (MC4R) and 2780 nM on MC3 receptor (MC3R). This compound also displayed an EC50 on MC4 receptor of 43.3 nM. Also, the inhibition at 3 µM at CYP3A4 is 66.9%.

As to `COC(=O)N1CCN(C(=O)[C@@H]2CN(C(C)(C)C)C[C@H]2c2ccc(OC)cc2F)CCC[C@H]1c1ccc(Cl)cc1` [Example 71], in series [1], the microsomal CLint at 1 μM turned out to be 43.4 µL/min/mg. For the same compound, the Ki at MC4 receptor (MC4R) was found to be 1050 nM; at MC3 receptor (MC3R) it was 10300 nM. This compound had an EC50 on MC4 receptor of 55.4 nM. Besides, the inhibition at 3 µM on CYP3A4 was 49.5%.

Regarding `COC(=O)N1CCN(C(=O)[C@@H]2CN(c3ccc(C#N)nn3)C[C@H]2c2ccc(F)cc2F)CCCC1c1cccc(OC)c1` (mixture of isomers) [Example 50], the microsomal CLint at 1 μM in series [1] was 266 µL/min/mg. For the same compound, the values for the Ki at MC4 receptor (MC4R) and at MC3 receptor (MC3R) were 379 nM and 1610 nM, respectively. Moreover, the EC50 at MC4 receptor is 74 nM. In addition, the inhibition at 3 µM on CYP3A4 was determined as 76.5%.

Take `COC(=O)N1CCN(C(=O)[C@@H]2CN(c3ccc(=O)n(C)n3)C[C@H]2c2ccc(F)cc2F)CCCC1c1ccc(Cl)cc1` (mixture of isomers) [Example 80]: in series [1], the microsomal CLint at 1 μM stood at 19 µL/min/mg. The Ki turned out to be 49.8 nM at MC4 receptor (MC4R) and 627 nM on MC3 receptor (MC3R). This compound also displayed an EC50 at MC4 receptor of 5.41 nM. Besides, the inhibition at 3 µM on CYP3A4 is 70.5%.
